Test results published in patent US6689779B2, “Oxazolidinone derivatives and a process for the preparation thereof” (priority 2000, dated 2004).
Values after ≈ are worked out from the molar mass of the structure shown.

System: ATCC 35837: Ethanmbutol resistant Mycobacterium tuberculosis
Test: Assay for in vitro antibacterial activity, agar dilution method: ATCC 35837
Format: cell-based
Details: for MIC50: Mycobacterium tuberculosis, ATCC35837, read-out: Antibacterial Activity (MIC50) ATCC 35837; for Antibacterial Activity (MIC50) ATCC 35837: agar dilution method, Ethanmbutol resistant Mycobacterium tuberculosis

Compound	MIC50 [µg/mL]	Antibacterial Activity (MIC50) ATCC 35837 [µg/mL]
N[C@@H]1CON=C1O [Cycloserine, reference compound]	6.25 (≈ 61.2 µM)	
CC(=O)NC[C@H]1CN(c2ccc(N3CCOCC3)c(F)c2)C(=O)O1 [Example U-100766, reference compound]	1.56 (≈ 4.62 µM)	
CC(=O)NC[C@H]1CN(c2ccc(-c3ccc(-n4cncn4)nc3)c(F)c2)C(=O)O1 [Exmp. 129, (S)-[N-3-(4-(2-(1,2,4-triazol-1-yl)pyridin-5-yl)-3-fluorophenyl)-2-oxo-5-oxazolidinyl]methyl acetamide]		0.2
CC(=O)NC[C@H]1CN(c2ccc(-c3ccc(-n4cnnn4)nc3)c(F)c2)C(=O)O1 [Exmp. 136, (S)-(N-3-(4-(2-(1-tetrazolyl)-pyridin-5-yl)-3-fluorophenyl)-2-oxo-5-oxazolidinyl)methyl acetamide]		0.1
CC(=O)NC[C@H]1CN(c2ccc(-c3ccc(-c4nnc(C)o4)nc3)c(F)c2)C(=O)O1 [Exmp. 137, (S)-[N-3-(4-(2-(5-methyl-(1,3,4)-oxadiazol-2-yl)-pyridin-5-yl)-3-fluorophenyl)-2-oxo-5-oxazolidinyl]methyl acetamide]		0.1
CC(=O)NC[C@H]1CN(c2ccc(-c3ccc(-c4noc(C)n4)nc3)c(F)c2)C(=O)O1 [Exmp. 138, (S)-[N-3-(4-(2-(5-methyl-(1,2,4)-oxadiazol-3-yl)pyridin-5-yl)-3-fluorophenyl)-2-oxo-5-oxazolidinyl]methyl acetamide]		0.1
CC(=O)NC[C@H]1CN(c2ccc(-c3ccc(-c4nnnn4C)nc3)c(F)c2)C(=O)O1 [Exmp. 139, (S)-[N-3-(4-(2-(1-methyl-5-tetrazolyl)-pyridin-5-yl)-3-fluorophenyl)-2-oxo-5-oxazolidinyl]methyl acetamide]		0.1
CC(=O)NC[C@H]1CN(c2ccc(-c3ccc(-c4nnn(C)n4)nc3)c(F)c2)C(=O)O1 [Exmp. 140, (S)-[N-3-(4-(2-(2-methyl-5-tetrazolyl)-pyridin-5-yl)-3-fluorophenyl)-2-oxo-5-oxazolidinyl]methyl acetamide]		0.1
CC(=O)NC[C@H]1CN(c2ccc(-c3ccc(N4CCOC4=O)nc3)c(F)c2)C(=O)O1 [Exmp. 143, (S)-[N-3-(4-(2-(2-oxo-(1,3)-oxazolidin-3-yl)-pyridin-5-yl)-3-fluorophenyl)-2-oxo-5-oxazolidinyl]methyl acetamide]		0.1
CC(=O)NC[C@H]1CN(c2ccc(-c3ccc(-c4nnn[nH]4)nc3)c(F)c2)C(=O)O1 [Exmp. 152, (S)-[N-3-(4-(2-(5-Tetrazolyl)-5-pyridinyl)-3-fluorophenyl)-2-oxo-5-oxazolidinyl]methyl Acetamide]		>25
CO[C@H]1/C=C/O[C@@]2(C)Oc3c(C)c(O)c4c(O)c(c(/C=N/N5CCN(C)CC5)c(O)c4c3C2=O)NC(=O)/C(C)=C\C=C\[C@H](C)[C@H](O)[C@@H](C)[C@@H](O)[C@@H](C)[C@H](OC(C)=O)[C@@H]1C [Rifampin, reference compound]	0.2 (≈ 0.243 µM)	
